The text below walks through data of patent US12391641B2, “Prostaglandin EP4 receptor antagonist compounds” (NXERA PHARMA UK LIMITED, priority 2019, dated 2025).

This experiment addresses T1, Human prostaglandin E2 receptor 4 (EP4) (Homo sapiens, UniProt P35408).
T1 construct: expressed in transfected cells; host or cells: HEK293 cells transduced with EP4 BacMam virus
Put plainly: cAMP Gs Functional Assay (HTRF cAMP dynamic-2), antagonism of PGE2. It counts as cell-based. As to conditions: HEK293 cells transfected with EP4 BacMam virus; PGE2 challenge at EC80 (7 nM); pIC50 converted to functional pKb with a modified Cheng Prussoff equation; read-out: Human EP4 fpKb (converted). As to the method: Cloning, Baculovirus generation, large scale infection of HEK293 cells and membrane preparation: Human prostaglandin E2 receptor 4 (EP4) was cloned into pBacMam expression vector (GeneScript, UK). Transposition of EP4 DNA was performed using Invitrogen's Bac-to-Bac Baculovirus Expression Systems. P0 baculovirus was generated by transfecting SF9 Cells with bacmid DNA using Cellfectin II transfection reagent (ThermoFisher Scientific, UK, catalog number 10362-100). Following P0 generation P1 virus was then generated ready for large scale infection and membrane preparation. HEK293 cells were grown in DMEM+Glutamax, supplemented with 10% heat inactivated fetal bovine serum (FBS). Cells were infected at a seeding density of 3.5 million cells/mL in 500 cm^3 flasks at 5% v/v EP4 Bacman. Expression was carried out over 36 hr period at 37° C. with 5% CO2. The cells were removed using PBS and a cell scrapper. The cell culture was centrifuged at 2500 RPM for 10 mins at 4° C. The supernatant was then poured off and the pellet stored at −80° C. The pellet was defrosted and re-suspended in 15 mL of homogenising buffer (20 mM HEPES, 10 mM EDTA, pH 7.4). Then homogenised in mechanical homogeniser (VMR) for 10 seconds. The membrane was centrifuged in centrifuge tubes at 40,000 g for 15 mins at 4° C. The supernatant was poured away and re-suspended in 15 mL of homogenising buffer. Homogenised for 20 seconds. The membrane was centrifuged at 40,000 g for 45 mins at 4° C. The membrane was re-suspended in 3 mL of storage buffer (20 mM HEPES, 0.1 mM EDTA, pH 7.4) mixing well. The resulting membranes were then stored at −80° C.
cAMP Gs Functional Assay: cAMP production following EP4 receptor activation was determined using the Homogeneous Time-Resolved Fluorescence (HTRF) cAMP dynamic-2 assay (Cisbio, France). HEK293 cells were transfected using a 0.5% EP4 Bacman virus for 36 hours, before dissociating the cells, and freezing at […].
On the day of testing, increasing concentration of test compounds, alongside positive controls (1 uM ONO-AE3-208) and negative control (DMSO (Sigma-Aldrich, UK) were added to a ProxiPlate-384 Plus, White 384-shallow well Mircoplate, (PerkinElmer, USA) using the ECHO dispense.
Cells were defrosted in a water bath and resuspended in DMEM supplemented with 10% FBS before centrifuging at 1200 RPM for 5 mins to form a pellet. The pellet was resuspended in assay buffer (DMEM+0.5 mM IBMX (Tocris, Abingdon, UK, Catalog Number 2845)) to a 1×10^6 cells/mL. Cell suspension, for a final assay concentration of 5000 cell/well was added using the multidrop to the pre-dispensed assay plate. The plate was then incubated at 37° C. for 30 mins, with 5% CO2. After incubation, EC80 concentration (7 nM) of PGE2 (EP4 agonist) was added to the plate. In parallel, a PGE2 dose-response curve was dispense to a separate plate. Assay buffer was then dispensed on top. The cAMP production was determined as manufacturer's instructions, before plates were read on a PheraStar fluorescence plate reader (BMG LabTech, Germany).
The pIC50 was converted to a functional pKb value using a modified Cheng Prussoff equation where Kd=agonist EC50 and Lhot=agonist challenge concentration;
(In general: Time-resolved FRET reads energy transfer from a long-lived donor to a nearby acceptor.)

T1 sequence (P35408 whole entry): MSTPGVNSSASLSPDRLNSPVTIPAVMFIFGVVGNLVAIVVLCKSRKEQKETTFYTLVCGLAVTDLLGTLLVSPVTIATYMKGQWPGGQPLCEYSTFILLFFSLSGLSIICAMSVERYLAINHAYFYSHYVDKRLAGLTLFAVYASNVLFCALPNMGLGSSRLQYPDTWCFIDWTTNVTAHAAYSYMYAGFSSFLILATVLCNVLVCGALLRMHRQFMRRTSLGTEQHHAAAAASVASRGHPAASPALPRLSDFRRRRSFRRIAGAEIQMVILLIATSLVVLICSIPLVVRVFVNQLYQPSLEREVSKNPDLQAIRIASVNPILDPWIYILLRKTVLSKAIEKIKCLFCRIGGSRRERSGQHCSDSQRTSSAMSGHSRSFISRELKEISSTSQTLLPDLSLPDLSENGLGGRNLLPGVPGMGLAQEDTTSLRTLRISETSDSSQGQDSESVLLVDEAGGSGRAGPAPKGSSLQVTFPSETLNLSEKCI

Regarding `O=C(O)c1ccc(C2(NC(=O)[C@@H](OCc3cccc(OC(F)F)c3)C3CCC3)CC2)cc1` [Example 100, (S)-4-(1-(2-cyclobutyl-2-((3-(difluoromethoxy)benzyl)oxy)acetamido)cyclopropyl)benzoic acid], the Ki was 15.5 nM.

`CC(C)[C@@H](OCc1cccc(C#N)c1)C(=O)N[C@@H](C)c1ccc(C(=O)O)cc1` [Example 22, 4-((S)-1-((R)-2-((3-cyanobenzyl)oxy)-3-methylbutanamido)ethyl)benzoic acid]: the Ki is 7.24 nM.

Regarding `CC(C)[C@@H](OCc1ccc(F)c(F)c1)C(=O)N[C@@H](C)c1ccc(C(=O)O)cc1` [Example 27, 4-((S)-1-((R)-2-((3,4-difluorobenzyl)oxy)-3-methylbutanamido)ethyl)benzoic acid], the Ki is 1.91 nM.

On to `CC(C)[C@@H](OCc1ccc(F)cc1)C(=O)N[C@@H](C)c1ccc(C(=O)O)cc1` [Example 5, 4-((S)-1-((R)-2-((4-fluorobenzyl)oxy)-3-methylbutanamido)ethyl)benzoic acid], for which the Ki is 4.17 nM.

Take `Cc1cc([C@H](C)NC(=O)[C@H](OCc2ccc(C(F)(F)F)cc2)C(C)C)ccc1C(=O)O` [Example 36, 2-methyl-4-((S)-1-((R)-3-methyl-2-((4-(trifluoromethyl)benzyl)oxy)butanamido)ethyl)benzoic acid]: the Ki is 25.7 nM.

In the case of `CC(C)[C@@H](OCc1ccc(F)c(Cl)c1)C(=O)NC1(c2ccc(C(=O)O)cc2)CC1` [Example 78, (R)-4-(1-(2-((3-chloro-4-fluorobenzyl)oxy)-3-methylbutanamido)cyclopropyl)benzoic acid], the Ki was greater than 20900 nM.

Turning to `O=C(O)c1ccc(C2(NC(=O)[C@H](OCc3cccc(OC(F)F)c3)C3CCC3)CC2)cc1` [Example 101, (R)-4-(1-(2-cyclobutyl-2-((3-(difluoromethoxy)benzyl)oxy)acetamido)cyclopropyl)benzoic acid], the Ki is 0.851 nM.

For `CC(C)[C@@H](OCc1cccc(S(=O)(=O)C2CC2)c1)C(=O)N[C@@H](C)c1ccc(C(=O)O)cc1` [Example 90, 4-((S)-1-((R)-2-((3-(cyclopropylsulfonyl)benzyl)oxy)-3-methylbutanamido)ethyl)benzoic acid], the Ki was 29.5 nM.

`COc1ccc(COC(C(=O)N[C@@H](C)c2ccc(C(=O)O)cc2)C(C)C)cc1` (mixture of isomers) [Example 6, 4-((1S)-1-(2-((4-methoxybenzyl)oxy)-3-methylbutanamido)ethyl)benzoic acid]: the Ki is 28.2 nM.

`CC(C)[C@@H](OCc1ccc(O)cc1)C(=O)N[C@@H](C)c1ccc(C(=O)O)cc1` [Example 41, 4-((S)-1-((R)-2-((4-hydroxybenzyl)oxy)-3-methylbutanamido)ethyl)benzoic acid]: the Ki was greater than 12900 nM.

Take `CC(C)[C@@H](OCc1cc(OC(F)F)ccn1)C(=O)N[C@@H](C)c1ccc(C(=O)O)cc1` [Example 77, 4-((S)-1-((R)-2-((4-(difluoromethoxy)pyridin-2-yl)methoxy)-3-methylbutanamido)ethyl)benzoic acid]: the Ki is 27.5 nM.

In the case of `CC(C)[C@H](OCc1cccc(S(C)(=O)=O)c1)C(=O)N[C@@H](C)c1ccc(C(=O)O)cc1` [Example 7, 4-((S)-1-((S)-3-methyl-2-((3-(methylsulfonyl)benzyl)oxy)butanamido)ethyl)benzoic acid], the Ki was greater than 195 nM.

For `CC(C)C(OCc1cccc(C2COC2)c1)C(=O)N[C@@H](C)c1ccc(C(=O)O)cc1` (single isomer, unassigned) [Example 49], the Ki is 2.29 nM.

For `CC(C)[C@@H](OCc1ccc(C(F)(F)F)cc1)C(=O)NC1(c2ccc(-c3nnn[nH]3)cc2)CC1` [Example 69, (R)—N-(1-(4-(1H-tetrazol-5-yl)phenyl)cyclopropyl)-3-methyl-2-((4-(trifluoromethyl)benzyl)oxy)butanamide], the Ki was 0.955 nM.

Take `CC(C)[C@@H](OCc1ccc(C(F)(F)F)cc1)C(=O)N[C@@H](C)c1ccc(-c2nnn[nH]2)cc1` [Example 43, (R)—N—((S)-1-(4-(1H-tetrazol-5-yl)phenyl)ethyl)-3-methyl-2-((4-(trifluoromethyl)benzyl)oxy)butanamide]: the Ki is 0.501 nM.

Turning to `CC(C)[C@@H](OCc1ccc(C(F)(F)F)cc1)C(=O)NCc1ccc(C(=O)O)cc1` [Example 59, (R)-4-((3-methyl-2-((4-(trifluoromethyl)benzyl)oxy)butanamido)methyl)benzoic acid], the Ki is 9.77 nM.

As to `CC(C)C(OCc1cccc(C2COC2)c1)C(=O)NC1(c2ccc(C(=O)O)cc2)CC1` (single isomer, unassigned) [Example 86, 4-(1-(3-methyl-2-((3-(oxetan-3-yl)benzyl)oxy)butanamido)cyclopropyl)benzoic acid], the Ki was 0.447 nM.

In the case of `CC(O[C@@H](C(=O)N[C@@H](C)c1ccc(C(=O)O)cc1)C(C)C)c1ccc(C(F)(F)F)cc1` (mixture of isomers) [Example 51, 4-((1S)-1-((2R)-3-methyl-2-(1-(4-(trifluoromethyl)phenyl)ethoxy)butanamido)ethyl)benzoic acid], the Ki is 417 nM.

Turning to `CC(C)[C@@H](OCc1ccc(C(F)F)cc1)C(=O)N[C@@H](C)c1ccc(C(=O)O)cc1` [Example 13, 4-((S)-1-((R)-2-((4-(difluoromethyl)benzyl)oxy)-3-methylbutanamido)ethyl)benzoic acid], the Ki was 2.34 nM.

As to `CC(C)[C@@H](OCc1cccc(OC(F)F)c1)C(=O)N[C@@H](C)c1ccc(-c2nnn[nH]2)cc1` [Example 82, (R)—N—((S)-1-(4-(1H-tetrazol-5-yl)phenyl)ethyl)-2-((3-(difluoromethoxy)benzyl)oxy)-3-methylbutanamide], the Ki is 0.0871 nM.

Regarding `CC(C)[C@@H](OCc1ccc(F)cc1)C(=O)N[C@@H](C)c1ccc(-c2nnn[nH]2)cc1` [Example 42, (R)—N—((S)-1-(4-(1H-tetrazol-5-yl)phenyl)ethyl)-2-((4-fluorobenzyl)oxy)-3-methylbutanamide], the Ki is 1.74 nM.

`C[C@H](NC(=O)C(OCc1ccc(C(F)(F)F)cc1)C1CCC1)c1ccc(C(=O)O)cc1` (mixture of isomers) [Example 92, 4-((1S)-1-(2-cyclobutyl-2-((4-(trifluoromethyl)benzyl)oxy)acetamido)ethyl)benzoic acid]: the Ki is 4.68 nM.

Consider `CC(C)[C@@H](OCc1cc(OC(F)F)ccn1)C(=O)NC1(c2ccc(C(=O)O)cc2)CC1` [Example 68, (R)-4-(1-(2-((4-(difluoromethoxy)pyridin-2-yl)methoxy)-3-methylbutanamido)cyclopropyl)benzoic acid], for which the Ki is 0.562 nM.

As for `C[C@H](NC(=O)C(OCc1ccc(C(F)(F)F)cc1)C1CCC1)c1ccc(C(=O)O)cc1` (single isomer, unassigned) [Example 93], the Ki was 3.63 nM.

Regarding `CC(C)[C@@H](OCc1ccc(C#N)cc1)C(=O)N[C@@H](C)c1ccc(C(=O)O)cc1` [Example 21, 4-((S)-1-((R)-2-((4-cyanobenzyl)oxy)-3-methylbutanamido)ethyl)benzoic acid], the Ki is 33.1 nM.

For the compound `CC(C)[C@@H](OCc1cccc(OC(F)(F)F)c1)C(=O)NC1(c2ccc(C(=O)O)cc2)CC1` [Example 58, (R)-4-(1-(3-methyl-2-((3-(trifluoromethoxy)benzyl)oxy)butanamido)cyclopropyl)benzoic acid], the Ki is greater than 12900 nM.

On to `CC(C)[C@@H](OCc1ccc(C2CC2)cc1)C(=O)N[C@@H](C)c1ccc(C(=O)O)cc1` [Example 30, 4-((S)-1-((R)-2-((4-cyclopropylbenzyl)oxy)-3-methylbutanamido)ethyl)benzoic acid], for which the Ki was 5.37 nM.
